Source: ChEMBL document CHEMBL3997804, “Evaluation of a series of 2-napthamide derivatives as inhibitors of the drug efflux pump AcrB for the reversal of antimicrobial resistance” (Bioorg Med Chem Lett, 2017)
Calls of active or inactive are those of the source. The rule behind the calls is not given here. Peptide text beside a SMILES is read from it. * marks the point of attachment. βNA = c1ccc2cc(N*)ccc2c1

Legend:
Escherichia coli [1] = assay: Effect on rifampicin-induced antibacterial activity against wild-type drug resistant Escherichia coli BW25113 assessed as rifampicin MIC at 200 ug/ml after 18 hrs by checkerboard method (reference value: 16 ug/ml); assay type: functional; settings: BW25113, 18 h
Escherichia coli BW25113 [2] = assay: Inhibition of AcrB in wild-type drug resistant Escherichia coli BW25113 assessed as potentiation of erythromycin-induced antibacterial activity by measuring erythromycin MIC at 200 ug/ml after 18 hrs by checkerboard method (reference value: 128 ug/ml)
Escherichia coli BW25113 [3] = assay: Inhibition of AcrB in wild-type drug resistant Escherichia coli BW25113 assessed as potentiation of chloramphenicol-induced antibacterial activity by measuring chloramphenicol MIC at 200 ug/ml after 18 hrs by checkerboard method (reference value: 8 ug/ml)
Escherichia coli BW25113 [4] = assay: Inhibition of AcrB in wild-type drug resistant Escherichia coli BW25113 assessed as potentiation of tetraphenyl phosphonium chloride-induced antibacterial activity by measuring tetraphenyl phosphonium chloride MIC at 200 ug/ml after 18 hrs by checkerboard method (reference value: 1024 ug/ml)
Escherichia coli [5] = assay: Growth inhibition of wild-type drug-resistant Escherichia coli BW25113 after 18 hrs by resazurin dye based broth microdilution method
Escherichia coli BW25113 [6] = assay: Inhibition of AcrB in wild-type drug resistant Escherichia coli BW25113 assessed as potentiation of chloramphenicol-induced antibacterial activity after 18 hrs by checkerboard method
Escherichia coli [7] = assay: Effect on rifampicin-induced antibacterial activity against wild-type drug resistant Escherichia coli BW25113 after 18 hrs by checkerboard method; assay type: functional
Escherichia coli BW25113 [8] = assay: Inhibition of AcrB in wild-type drug resistant Escherichia coli BW25113 assessed as potentiation of erythromycin-induced antibacterial activity after 18 hrs by checkerboard method
Escherichia coli BW25113 [9] = assay: Inhibition of AcrB in wild-type drug resistant Escherichia coli BW25113 assessed as potentiation of tetraphenyl phosphonium chloride-induced antibacterial activity after 18 hrs by checkerboard method
Escherichia coli BW25113 [10] = assay: Inhibition of AcrB in drug resistant Escherichia coli BW25113 assessed as reduction in nile red efflux at 200 uM pretreated for 15 mins followed by nile red addition measured after 3 hrs for 200 secs in presence of glucose by fluorimetric method
Escherichia coli BW25113 [11] = assay: Inhibition of […] in drug resistant Escherichia coli BW25113 assessed as increase in outer membrane permeability by measuring increase nitrocefin hydrolysis at 512 ug/ml measured over 30 mins in presence of CCCP by spectrophotometric method
Escherichia coli BW25113 [12] = assay: Inhibition of AcrB in drug resistant Escherichia coli BW25113 assessed as reduction in nile red efflux at 500 uM pretreated for 15 mins followed by nile red addition measured after 3 hrs for 200 secs in presence of glucose by fluorimetric method

SMILES | MIC (Escherichia coli [1]) [µg/mL] | MIC (Escherichia coli BW25113 [2]) [µg/mL] | MIC (Escherichia coli BW25113 [3]) [µg/mL] | MIC (Escherichia coli BW25113 [4]) [µg/mL] | growth inhibition (GI) (Escherichia coli [5]) | inhibition (Escherichia coli BW25113 [6]) | Activity (Escherichia coli [7]) | inhibition (Escherichia coli BW25113 [8]) | inhibition (Escherichia coli BW25113 [9]) | inhibition (Escherichia coli BW25113 [10]) | inhibition (Escherichia coli BW25113 [11]) | inhibition (Escherichia coli BW25113 [12])
N=C(N)NCCC[C@H](NC(=O)[C@@H](N)Cc1ccccc1)C(=O)Nc1ccc2ccccc2c1 [PABETAN] (H-Phe-Arg-βNA) | 1 | 16 | 2 | 128 | – | – | – | – | – | – | – | –
CCOC(=O)COc1cc(C(N)=O)cc2ccccc12 | – | – | – | – | Non-Toxic | inactive | inactive | inactive | inactive | – | – | –
NC(=O)c1cc(OCc2ccccc2F)c2ccccc2c1 | – | – | – | – | Non-Toxic | inactive | inactive | inactive | inactive | Active | – | –
CCC(C)Oc1cc(C(N)=O)cc2ccccc12 (stereo not drawn) | – | – | – | – | Non-Toxic | inactive | inactive | inactive | inactive | – | – | –
NC(=O)c1cc(OCc2ccccc2)c2ccccc2c1 | – | – | – | – | Non-Toxic | Active | – | – | – | – | Active | Active
CC(C)COc1cc(C(N)=O)cc2ccccc12 | – | – | – | – | Non-Toxic | – | – | Active | – | – | Active | Active
CCOC(=O)C(C)Oc1cc(C(N)=O)cc2ccccc12 (stereo not drawn) | – | – | – | – | Non-Toxic | inactive | inactive | inactive | inactive | – | – | –
NC(=O)c1cc(OCC2CCCC2)c2ccccc2c1 | – | – | – | – | Non-Toxic | inactive | inactive | inactive | inactive | – | – | –
NC(=O)c1cc(OCc2cccc(F)c2)c2ccccc2c1 | – | – | – | – | Non-Toxic | inactive | inactive | inactive | inactive | – | – | –
CCOC(=O)CCCOc1cc(C(N)=O)cc2ccccc12 | – | – | – | – | Non-Toxic | inactive | inactive | inactive | inactive | – | – | –
NC(=O)c1cc(OCc2ccccc2Cl)c2ccccc2c1 | – | – | – | – | Non-Toxic | inactive | inactive | inactive | inactive | – | – | –
CCCCC(CC)COc1cc(C(N)=O)cc2ccccc12 (stereo not drawn) | – | – | – | – | Non-Toxic | inactive | inactive | inactive | inactive | – | – | –
NC(=O)c1cc(OCc2ccc(F)cc2)c2ccccc2c1 | – | – | – | – | Non-Toxic | inactive | inactive | inactive | inactive | – | – | –
Cc1ccccc1COc1cc(C(N)=O)cc2ccccc12 | – | – | – | – | Non-Toxic | inactive | inactive | inactive | inactive | – | – | –
